Where two headings read alike, the source gives them in different places.
Columns and labels:
[1] = target: T1, ROCK1 (Homo sapiens, UniProt Q13464); assay: ROCK1 kinase binding affinity, DiscoverX KINOMEscan KdELECT; conditions: 11-point 3-fold dilution
T1 construct: T7 phage fusion (kinase-tagged phage) or DNA tag for qPCR detection
Description: (§1) 1. ROCK1 and ROCK2 kinase assays: The ROCK1 and ROCK2 kinase binding affinities of compounds in this disclosure were determined by DiscoverX's KINOMEscan™ KdELECT technology (https://www.discoverx.com/kinomescan-elect-kinase-screening-and-profiling-services): Kinase-tagged T7 phage strains were prepared in an E. coli host derived from the BL21 strain. E. coli were grown to log-phase and infected with T7 phage and incubated with shaking at 32° C. until lysis. The lysates were centrifuged and filtered to remove cell debris. The remaining kinases were produced in HEK-293 cells and subsequently tagged with DNA for qPCR detection. […] The liganded beads were blocked with excess biotin and washed with blocking buffer (SeaBlock (Pierce), 1% BSA, 0.05% Tween 20, 1 mM DTT) to remove unbound ligand and to reduce nonspecific binding. […] Kds were determined using an 11-point 3-fold compound dilution series with three DMSO control points. […] The compounds were then diluted directly into the assays such that the final concentration of DMSO was 0.9%. All reactions performed in polypropylene 384-well plate. Each was a final volume of 0.02 ml. […] The kinase concentration in the eluates was measured by qPCR.

[2] = target: T2, ROCK2 (Homo sapiens, UniProt O75116); assay: ROCK2 kinase binding affinity, DiscoverX KINOMEscan KdELECT; conditions: for ROCK2 Selectivity: selectivity for ROCK2 over ROCK1 from Kd
T2 construct: T7 phage fusion (kinase-tagged phage) or DNA tag for qPCR detection
Description: as §1

[3] = KINOMEscan KdELECT, 11-point 3-fold dilution, read-out: Kd (μM) ROCK2

T2 sequence (O75116 whole entry, the tested form may be a part): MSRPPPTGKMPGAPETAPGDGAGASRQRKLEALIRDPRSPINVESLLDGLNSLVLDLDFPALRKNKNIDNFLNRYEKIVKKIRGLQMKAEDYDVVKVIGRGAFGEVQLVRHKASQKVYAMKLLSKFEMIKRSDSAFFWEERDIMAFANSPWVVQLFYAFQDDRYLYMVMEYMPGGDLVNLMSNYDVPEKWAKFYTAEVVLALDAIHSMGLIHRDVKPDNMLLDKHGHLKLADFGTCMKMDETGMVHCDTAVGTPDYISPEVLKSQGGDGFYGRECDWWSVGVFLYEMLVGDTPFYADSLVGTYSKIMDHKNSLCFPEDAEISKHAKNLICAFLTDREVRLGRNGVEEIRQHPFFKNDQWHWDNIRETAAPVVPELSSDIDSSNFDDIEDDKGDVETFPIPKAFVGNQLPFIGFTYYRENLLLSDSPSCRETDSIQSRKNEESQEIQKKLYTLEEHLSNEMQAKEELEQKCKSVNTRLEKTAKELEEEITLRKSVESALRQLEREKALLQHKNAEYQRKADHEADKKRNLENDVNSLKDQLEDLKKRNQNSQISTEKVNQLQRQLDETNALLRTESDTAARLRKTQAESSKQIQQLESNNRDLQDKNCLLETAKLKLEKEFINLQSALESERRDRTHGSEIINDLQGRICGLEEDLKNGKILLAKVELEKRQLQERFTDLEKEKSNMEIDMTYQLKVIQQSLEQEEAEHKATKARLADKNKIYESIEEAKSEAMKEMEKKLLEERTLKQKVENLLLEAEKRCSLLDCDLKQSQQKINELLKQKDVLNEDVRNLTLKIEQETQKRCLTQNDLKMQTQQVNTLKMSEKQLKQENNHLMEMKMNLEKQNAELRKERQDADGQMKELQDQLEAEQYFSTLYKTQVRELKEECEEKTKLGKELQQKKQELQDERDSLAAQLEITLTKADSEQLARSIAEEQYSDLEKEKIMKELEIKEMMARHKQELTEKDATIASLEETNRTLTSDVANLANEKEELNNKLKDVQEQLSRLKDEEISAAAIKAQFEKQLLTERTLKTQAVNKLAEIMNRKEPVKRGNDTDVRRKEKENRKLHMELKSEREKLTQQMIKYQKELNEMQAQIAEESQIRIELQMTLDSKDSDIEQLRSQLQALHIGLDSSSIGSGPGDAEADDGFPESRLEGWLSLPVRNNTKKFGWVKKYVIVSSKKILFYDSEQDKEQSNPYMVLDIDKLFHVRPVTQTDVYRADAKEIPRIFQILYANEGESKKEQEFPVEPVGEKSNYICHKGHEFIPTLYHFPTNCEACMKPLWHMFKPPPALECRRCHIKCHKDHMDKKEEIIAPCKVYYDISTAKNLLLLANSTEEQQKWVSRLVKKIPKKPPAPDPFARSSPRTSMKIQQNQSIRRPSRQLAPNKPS
T1 sequence (Q13464 whole entry, the tested form may be a part): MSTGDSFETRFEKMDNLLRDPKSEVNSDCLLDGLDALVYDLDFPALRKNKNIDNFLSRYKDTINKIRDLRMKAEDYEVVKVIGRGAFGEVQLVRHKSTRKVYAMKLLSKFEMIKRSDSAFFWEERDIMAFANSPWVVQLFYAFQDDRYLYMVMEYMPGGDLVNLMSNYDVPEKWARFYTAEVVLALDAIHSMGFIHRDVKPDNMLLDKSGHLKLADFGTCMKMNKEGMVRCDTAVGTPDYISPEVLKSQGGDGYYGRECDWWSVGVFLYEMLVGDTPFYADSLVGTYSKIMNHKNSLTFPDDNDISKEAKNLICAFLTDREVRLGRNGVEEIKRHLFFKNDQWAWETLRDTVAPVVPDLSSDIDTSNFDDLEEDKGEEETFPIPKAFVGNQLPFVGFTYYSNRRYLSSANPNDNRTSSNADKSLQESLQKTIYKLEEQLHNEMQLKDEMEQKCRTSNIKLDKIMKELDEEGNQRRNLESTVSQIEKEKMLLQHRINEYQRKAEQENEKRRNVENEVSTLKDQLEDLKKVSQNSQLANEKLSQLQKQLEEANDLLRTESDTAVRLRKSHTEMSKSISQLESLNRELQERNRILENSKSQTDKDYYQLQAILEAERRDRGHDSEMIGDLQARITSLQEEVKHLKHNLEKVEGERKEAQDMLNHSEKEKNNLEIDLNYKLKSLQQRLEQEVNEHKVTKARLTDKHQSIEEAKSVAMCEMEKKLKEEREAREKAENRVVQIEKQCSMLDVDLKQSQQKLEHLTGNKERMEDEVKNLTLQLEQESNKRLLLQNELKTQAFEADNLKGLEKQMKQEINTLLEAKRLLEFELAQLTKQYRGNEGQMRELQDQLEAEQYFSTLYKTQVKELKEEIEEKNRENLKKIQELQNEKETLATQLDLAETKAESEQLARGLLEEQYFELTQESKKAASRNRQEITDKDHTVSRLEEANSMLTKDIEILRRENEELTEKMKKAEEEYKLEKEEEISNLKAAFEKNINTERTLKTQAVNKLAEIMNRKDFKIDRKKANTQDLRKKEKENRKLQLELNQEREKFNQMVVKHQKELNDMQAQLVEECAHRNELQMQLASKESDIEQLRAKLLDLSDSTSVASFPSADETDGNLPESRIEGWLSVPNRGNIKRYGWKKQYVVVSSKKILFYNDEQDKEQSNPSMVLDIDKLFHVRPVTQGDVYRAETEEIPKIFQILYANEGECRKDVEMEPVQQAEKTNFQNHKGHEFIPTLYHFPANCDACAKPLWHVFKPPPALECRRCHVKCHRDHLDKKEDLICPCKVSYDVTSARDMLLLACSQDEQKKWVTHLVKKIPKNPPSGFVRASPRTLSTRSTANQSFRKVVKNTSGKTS

Structure (SMILES) | Kd [1] [µM] | Kd [2, 3] [µM] | ROCK2 Selectivity [2] | Kd [2] [µM]
O=c1[nH]cccc1CNc1nccc(-c2nccc(C#Cc3ccc4[nH]ncc4c3)n2)n1 [Ex. 21, 3-(((4-((1H-Indazol-5-yl)ethynyl)-[2,4′-bipyrimidin]-2′-yl)amino)methyl)pyridin-2(1H)-one] | 0.1 to 0.99 | 0.01 to 0.099 | ** (50 to 150-fold selectivity for ROCK2) | 
Fc1cc(C#Cc2ccnc(-c3ccnc(NCC4CCCO4)n3)n2)cc2cn[nH]c12 (stereo not drawn) [Ex. 49, 4-((7-Fluoro-1H-indazol-5-yl)ethynyl)-N-((tetrahydrofuran-2-yl)methyl)-[2,4′-bipyrimidin]-2′-amine] | 1 to 9.9 | < 0.01 | *** (151 to 500-fold selectivity for ROCK2) | 
C[C@@H](O)CNc1nccc(-c2nccc(C#Cc3ccc4[nH]ncc4c3)n2)n1 [Ex. 79, (R)-1-((4-((1H-Indazol-5-yl)ethynyl)-[2,4′-bipyrimidin]-2′-yl)amino)propan-2-ol] | 1 to 9.9 |  | ** (50 to 150-fold selectivity for ROCK2) | 0.01 to 0.099
C(#Cc1ccnc(-c2ccnc(NC[C@@H]3CCOC3)n2)n1)c1ccc2[nH]ncc2c1 [Ex. 58, (S)-4-((1H-Indazol-5-yl)ethynyl)-N-((tetrahydrofuran-3-yl)methyl)-[2,4′-bipyrimidin]-2′-amine] | 1 to 9.9 | < 0.01 | **** (>500-fold selectivity for ROCK2) | 
Cc1cnc(F)c(CNc2nccc(-c3nccc(C#Cc4ccc5[nH]ncc5c4)n3)n2)c1 [Ex. 72, 4-((1H-Indazol-5-yl)ethynyl)-N-((2-fluoro-5-methylpyridin-3-yl)methyl)-[2,4′-bipyrimidin]-2′-amine] | 10 to 100 | 10 to 100 | * (<50-fold selectivity for ROCK2) | 
Fc1ccc(CNc2nccc(-c3nccc(C#Cc4ccc5[nH]ncc5c4)n3)n2)cn1 [Ex. 47, 4-((1H-Indazol-5-yl)ethynyl)-N-((6-fluoropyridin-3-yl)methyl)-[2,4′-bipyrimidin]-2′-amine] | 1 to 9.9 | 0.01 to 0.099 | ** (50 to 150-fold selectivity for ROCK2) | 
FC1(F)Oc2ccc(CNc3nccc(-c4nccc(C#Cc5ccc6[nH]ncc6c5)n4)n3)cc2O1 [Ex. 13, 4-((1H-Indazol-5-yl)ethynyl)-N-((2,2-difluorobenzo[d][1,3]dioxol-5-yl)methyl)-[2,4′-bipyrimidin]-2′-amine] | 10 to 100 | 0.1 to 0.99 | ** (50 to 150-fold selectivity for ROCK2) | 
C(#Cc1ccnc(-c2ccnc(NCC3CCCC3)n2)n1)c1ccc2[nH]ncc2c1 [Ex. 44, 4-((1H-Indazol-5-yl)ethynyl)-N-(cyclopentylmethyl)-[2,4′-bipyrimidin]-2′-amine] | 10 to 100 | 0.01 to 0.099 | *** (151 to 500-fold selectivity for ROCK2) | 
C(#Cc1ccnc(-c2ccnc(NCC3CCCN3)n2)n1)c1ccc2[nH]ncc2c1 (stereo not drawn) [Ex. 5, 4-((1H-Indazol-5-yl)ethynyl)-N-(pyrrolidin-2-ylmethyl)-[2,4′-bipyrimidin]-2′-amine] | 0.1 to 0.99 | 0.01 to 0.099 | * (<50-fold selectivity for ROCK2) | 
Cc1cnc(CNc2nccc(-c3nccc(C#Cc4ccc5[nH]ncc5c4)n3)n2)nc1 [Ex. 4, 4-((1H-Indazol-5-yl)ethynyl)-N-((5-methylpyrimidin-2-yl)methyl)-[2,4′-bipyrimidin]-2′-amine] | 1 to 9.9 | 0.1 to 0.99 | * (<50-fold selectivity for ROCK2) | 
C(#Cc1ccnc(-c2ccnc(NCc3cc4ccccc4cn3)n2)n1)c1ccc2[nH]ncc2c1 [Ex. 25, 4-((1H-Indazol-5-yl)ethynyl)-N-(isoquinolin-3-ylmethyl)-[2,4′-bipyrimidin]-2′-amine] | 0.1 to 0.99 | 0.01 to 0.099 | * (<50-fold selectivity for ROCK2) | 
CNC(=O)CNc1nccc(-c2nccc(C#Cc3ccc4[nH]ncc4c3)n2)n1 [Ex. 55, 2-((4-((1H-Indazol-5-yl)ethynyl)-[2,4′-bipyrimidin]-2′-yl)amino)-N-methylacetamide] | 1 to 9.9 | 0.01 to 0.099 | ** (50 to 150-fold selectivity for ROCK2) | 

Second part, led by results:

Kd [1] [µM] | Kd [2, 3] [µM] | Structure (SMILES) | ROCK2 Selectivity [2] | Kd [2] [µM]
1 to 9.9 | 0.1 to 0.99 | CC(C)(N)CNc1nccc(-c2nccc(C#Cc3ccc4[nH]ncc4c3)n2)n1 [Ex. 89, N1-(4-((1H-Indazol-5-yl)ethynyl)-[2,4′-bipyrimidin]-2′-yl)-2-methylpropane-1,2-diamine] | * (<50-fold selectivity for ROCK2) | 
1 to 9.9 | 0.01 to 0.099 | COC(C)(C)CNc1nccc(-c2nccc(C#Cc3ccc4[nH]ncc4c3)n2)n1 [Ex. 81, 4-((1H-Indazol-5-yl)ethynyl)-N-(2-methoxy-2-methylpropyl)-[2,4′-bipyrimidin]-2′-amine] | ** (50 to 150-fold selectivity for ROCK2) | 
1 to 9.9 | < 0.01 | O=S1(=O)CCC(CNc2nccc(-c3nccc(C#Cc4ccc5[nH]ncc5c4)n3)n2)CC1 [Ex. 85, 4-(((4-((1H-Indazol-5-yl)ethynyl)-[2,4′-bipyrimidin]-2′-yl)amino)methyl)tetrahydro-2H-thiopyran 1,1-dioxide] | *** (151 to 500-fold selectivity for ROCK2) | 
1 to 9.9 | < 0.01 | O[C@H]1CC[C@H](Nc2nccc(-c3nccc(C#Cc4ccc5[nH]ncc5c4)n3)n2)C1 [Ex. 90, (1S,3S)-3-((4-((1H-Indazol-5-yl)ethynyl)-[2,4′-bipyrimidin]-2′-yl)amino)cyclopentanol] | *** (151 to 500-fold selectivity for ROCK2) | 
0.1 to 0.99 | < 0.01 | O[C@H]1CC[C@@H](Nc2nccc(-c3nccc(C#Cc4ccc5[nH]ncc5c4)n3)n2)C1 [Ex. 82, (1S,3R)-3-((4-((1H-Indazol-5-yl)ethynyl)-[2,4′-bipyrimidin]-2′-yl)amino)cyclopentanol] | **** (>500-fold selectivity for ROCK2) | 
0.1 to 0.99 | 0.01 to 0.099 | O=C(O)[C@H]1CC[C@@H](Nc2nccc(-c3nccc(C#Cc4ccc5[nH]ncc5c4)n3)n2)CC1 [Ex. 92, (1s,4s)-4-((4-((1H-Indazol-5-yl)ethynyl)-[2,4′-bipyrimidin]-2′-yl)amino)cyclohexanecarboxylic acid] | * (<50-fold selectivity for ROCK2) | 
10 to 100 | 0.01 to 0.099 | O[C@H]1CC[C@@H](Nc2nccc(-c3nccc(C#Cc4ccc5cncn5c4)n3)n2)CC1 [Ex. 96, (1s,4s)-4-((4-(Imidazo[1,5-a]pyridin-6-ylethynyl)-[2,4′-bipyrimidin]-2′-yl)amino)cyclohexanol] | ** (50 to 150-fold selectivity for ROCK2) | 
0.1 to 0.99 | < 0.01 | O[C@@H]1CC[C@H](Nc2nccc(-c3nccc(C#Cc4ccc5[nH]ncc5c4)n3)n2)C1 [Ex. 74, (1R,3S)-3-((4-((1H-indazol-5-yl)ethynyl)-[2,4′-bipyrimidin]-2′-yl)amino)cyclopentanol] | **** (>500-fold selectivity for ROCK2) | 
10 to 100 | 10 to 100 | O[C@H]1CC[C@@H](Nc2nccc(-c3nccc(C#Cc4ccn5cnnc5c4)n3)n2)CC1 [Ex. 97, (1s,4s)-4-((4-([1,2,4]Triazolo[4,3-a]pyridin-7-ylethynyl)-[2,4′-bipyrimidin]-2′-yl)amino)cyclohexanol] | * (<50-fold selectivity for ROCK2) | 

From patent US20230295131A1, “INHIBITORS OF RHO-ASSOCIATED COILED-COIL KINASE” (Angion Biomedica Corp., priority 2020, published 2023)
